Where a SMILES comes first, the peptide text is derived from it.
Key:
CR^+ B cells = experiment: induction in vitro of CR+ B cell differentiation from CR- B cell precursors; assay type: cell-based, nu/nu mice; conditions: concentrations of 0.01 ng to 10 μg/ml
Description: To determine the activity and characteristics of the polypeptide, determinations were carried out on healthy 5-6 weeks nu/nu mice of both sexes, the mice being bred on a BALB/c background (thymocytes expressing Thy-1.2 surface antigen) and maintained under conventional conditions. For the antisera, anti Thy-1.2 sera were prepared in Thy-1 congenic mice.
For the induction in vitro of Thy-1^+ T cells or CR^+ B cell differentiation, the induction of thymocyte differentiation from prothymocytes in vitro was performed as described by Komuro and Boyse, (Lancet, 1, 740, 1973), using the acquisition of Thy-1.2 as a marker of T cell differentiation. The induction of CR^+ B cell differentiation from CR^- B cell precursors in vitro was performed under similar conditions using as the assay criterion, the capacity of CR^+ cells to bind sheep erythrocytes coated with subagglutinating quantities of rabbit antibody and nonlytic complement. Spleen cell populations from healthy nu/nu mice fractionated on discontinuous bovine serum albumin gradients were used as the source of both precursor types (Thy-1^- and CR^-) because they have few or no Thy-1^+ cells and low numbers of CR^+ cells.

[1] = test system: neuromuscular transmission; experiment: neuromuscular transmission assessed by electromyography after injection; assay type: in vivo; conditions: mice, single injection of 10-100 μg peptide in saline intraperitoneally, 24 hours later
Description: To determine the effect of this peptide on neuromuscular transmission, mice were injected with 10-100 μg peptide in N saline intraperitoreally. Twenty-four hours later, neuromuscular transmission was assessed by electromyography as described in Lancet, Vol. 12, pps. 256-259, 1975.

[2] = activity compared with the basic pentapeptide of Example I, in Twomey solution; conditions: 1 μg/ml in 89% Twomey solution

| Compound | induction of differentiation of CR+ B cells (CR^+ B cells) | neuromuscular transmission impairment by electromyography [1] | maximum activity compared with the basic pentapeptide of Example I [2] [%] | minimum activity compared with the basic pentapeptide of Example I [2] [%] |
| --- | --- | --- | --- | --- |
| CC(C)[C@H](NC(=O)[C@H](CC(=O)O)NC(=O)[C@H](CCCCN)NC(=O)[C@@H](N)CCCNC(=N)N)C(=O)N[C@@H](Cc1ccc(O)cc1)C(=O)O [Example I, H2 N-ARG-LYS-ASP-VAL-TYR-COOH] (H-RKDVY-OH) | did not induce | detectable neuromuscular impairment | – | – |
| CC(C)[C@H](NC(=O)[C@H](CC(=O)O)NC(=O)[C@H](CCCCN)NC(=O)[C@@H](N)CCCNC(=N)N)C(=O)N[C@@H](Cc1ccc(O)cc1)C(N)=O [Example IV, H2 N-ARG-LYS-ASP-VAL-TYR-CONH2] (H-RKDVY-NH2) | – | – | 105 | 70 |
